Test results reported in patent US8927500B2, “Peptidomimetic macrocycles” (Aileron Therapeutics, Inc., priority 2012, dated 2015).
Read-outs that look alike come from different tables or passages of the source. Where a SMILES comes first, the peptide text is derived from it. Bridges are numbered along the chain shown (N, C = ends). [ ]: non-standard residue; d: D form. The star is where a group is joined. dPhe(4-CF3) = N[C@H](Cc1ccc(C(F)(F)F)cc1)C(=O)O; Gla = N[C@@H](CC(C(=O)O)C(=O)O)C(=O)O; Palmitoyl = CCCCCCCCCCCCCCCC(=O)*; R8 = C=CCCCCCC[C@@](C)(N)C(=O)O; Cit = NC(=O)NCCC[C@H](N)C(=O)O; Cba = N[C@@H](CC1CCC1)C(=O)O; R5 = C=CCCC[C@@](C)(N)C(=O)O; hLeu = CC(C)CC[C@H](N)C(=O)O; S5 = C=CCCC[C@](C)(N)C(=O)O; Nle = CCCC[C@H](N)C(=O)O

Tests used:
MDMX = biological target: T1, MDMX (Homo sapiens, UniProt O15151); assay: Competitive fluorescence polarization assay for MDMX; format: binding; settings: competitive FP assay; for IC50: read-out: IC50 (MDMX)
T1 sequence (O15151 1-125): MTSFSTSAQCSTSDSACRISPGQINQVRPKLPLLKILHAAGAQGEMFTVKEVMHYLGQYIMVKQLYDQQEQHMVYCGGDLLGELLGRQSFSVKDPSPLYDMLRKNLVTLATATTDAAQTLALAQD

MDM2 = MDM2 (Homo sapiens, UniProt Q00987); assay: Competitive fluorescence polarization assay for MDM2; format: binding; settings: competitive FP assay, MDM2; for IC50: read-out: IC50 (MDM2)
MDM2, sequence (Q00987 1-125): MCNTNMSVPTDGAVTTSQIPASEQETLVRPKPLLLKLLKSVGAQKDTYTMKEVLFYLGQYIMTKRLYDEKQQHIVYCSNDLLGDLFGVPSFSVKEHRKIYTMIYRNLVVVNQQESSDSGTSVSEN

Structure (SMILES) | Ki (MDMX; read-out: Ki (MDMX)) | Ki (MDM2; read-out: Ki (MDM2)) | IC50 (MDMX) | IC50 (MDM2) | Ki (MDMX; Ki (MDMX)) | Ki (MDM2; Ki (MDM2))
CCCC[C@H](NC(=O)[C@H](C)NC(=O)[C@H](C)NC(=O)[C@]1(C)CCCC=CCCCCCC[C@@](C)(NC(=O)[C@H](Cc2ccccc2)NC(=O)[C@@H](NC(=O)[C@H](CC(C)C)NC(C)=O)[C@@H](C)O)C(=O)N[C@@H](C)C(=O)N[C@@H](Cc2ccc(O)cc2)C(=O)N[C@@H](Cc2c[nH]c3ccccc23)C(=O)N[C@@H](C)C(=O)N[C@@H](CCC(N)=O)C(=O)N[C@@H](CC(C)C)C(=O)N1)C(=O)N[C@@H](C)C(=O)N[C@H](C)C(N)=O (single isomer, unassigned) [compound 408] | 0.01 to 0.1 µM | < 0.01 µM | 0.01 to 0.1 µM | 0.01 to 0.1 µM | – | –
CC(=O)N[C@@H](CC(C)C)C(=O)N[C@H](C(=O)N[C@@H](Cc1ccccc1)C(=O)N[C@]1(C)CCCCCCC=CCCC[C@@](C)(C(=O)N[C@@H](C)C(=O)N[C@@H](C)C(=O)N[C@@H](C)C(=O)N[C@@H](C)C(=O)N[C@@H](C)C(=O)N[C@H](C)C(N)=O)NC(=O)[C@H](CC(C)C)NC(=O)[C@H](CCC(N)=O)NC(=O)[C@H](C)NC(=O)[C@H](Cc2c[nH]c3ccccc23)NC(=O)[C@H](Cc2ccc(O)cc2)NC(=O)[C@H](CC(C(=O)O)C(=O)O)NC1=O)[C@@H](C)O [compound 602] (Ac-LTF[R8][Gla]YWAQL[S5]AAAAA[dA]-NH2; staple 4-11) | – | – | – | – | < 0.01 µM | < 0.01 µM
CC(=O)N[C@@H](CC(C)C)C(=O)N[C@H](C(=O)N[C@@H](Cc1ccccc1)C(=O)N[C@]1(C)CCCCCCC=CCCC[C@@](C)(C(=O)N[C@@H](C)C(=O)N[C@@H](C)C(=O)N[C@@H](C)C(=O)N[C@@H](C)C(=O)N[C@@H](C)C(=O)N[C@H](C)C(N)=O)NC(=O)[C@H](CC(C)C)NC(=O)[C@H](CC(C)C)NC(=O)[C@H](C)NC(=O)[C@H](Cc2c[nH]c3ccccc23)NC(=O)[C@H](Cc2ccc(O)cc2)NC(=O)[C@H](CCC(=O)O)NC1=O)[C@@H](C)O [compound 608] (Ac-LTF[R8]EYWALL[S5]AAAAA[dA]-NH2; staple 4-11) | 0.01 to 0.1 µM | < 0.01 µM | – | – | – | –
CC(=O)N[C@@H](CC(C)C)C(=O)N[C@H](C(=O)N[C@@H](Cc1ccccc1)C(=O)N[C@]1(C)CCCCCCC=CCCC[C@@](C)(C(=O)N[C@@H](CO)C(=O)N[C@@H](C)C(=O)N[C@@H](C)C(N)=O)NC(=O)[C@H](CC2CCC2)NC(=O)[C@H](CCC(N)=O)NC(=O)[C@H](C)NC(=O)[C@H](Cc2c[nH]c3ccccc23)NC(=O)[C@H](Cc2ccc(O)cc2)NC(=O)[C@H](C)NC1=O)[C@@H](C)O [compound 255] (Ac-LTF[R8]AYWAQ[Cba][S5]SAA-NH2; staple 4-11) | 0.01 to 0.1 µM | < 0.01 µM | 0.01 to 0.1 µM | 0.01 to 0.1 µM | – | –
CCCC[C@H](NC(=O)[C@H](C)NC(=O)[C@H](C)NC(=O)[C@]1(C)CCCC=CCCCCCC[C@@](C)(NC(=O)[C@H](Cc2ccccc2)NC(=O)[C@@H](NC(=O)[C@H](C)NC(C)=O)[C@@H](C)O)C(=O)N[C@@H](CCC(=O)O)C(=O)N[C@@H](Cc2ccc(O)cc2)C(=O)N[C@@H](Cc2c[nH]c3ccccc23)C(=O)N[C@@H](C)C(=O)N[C@@H](CCC(N)=O)C(=O)N[C@@H](CC(C)C)C(=O)N1)C(=O)N[C@@H](C)C(N)=O [compound 370] (Ac-ATF[R8]EYWAQL[S5]AA[Nle]A-NH2; staple 4-11) | 0.01 to 0.1 µM | < 0.01 µM | 0.01 to 0.1 µM | 0.01 to 0.1 µM | – | –
CCCC[C@H](NC(=O)[C@H](C)NC(=O)[C@H](C)NC(=O)[C@]1(C)CCCC=CCCCCCC[C@@](C)(NC(=O)[C@H](Cc2ccccc2)NC(=O)[C@@H](NC(=O)[C@H](CC(C)C)NC(C)=O)[C@@H](C)O)C(=O)N[C@@H](C)C(=O)N[C@@H](Cc2ccc(O)cc2)C(=O)N[C@@H](Cc2c[nH]c3ccccc23)C(=O)N[C@@H](C)C(=O)N[C@@H](CCC(N)=O)C(=O)N[C@@H](CC(C)C)C(=O)N1)C(=O)N[C@@H](C)C(=O)NCCC (single isomer, unassigned) [compound 423] | 0.01 to 0.1 µM | < 0.01 µM | 0.01 to 0.1 µM | 0.01 to 0.1 µM | – | –
CCCC[C@H](NC(=O)[C@H](C)NC(=O)[C@H](C)NC(=O)[C@]1(C)CCCC=CCCCCCC[C@@](C)(NC(=O)[C@H](Cc2ccccc2)NC(=O)[C@@H](NC(=O)[C@H](CC(C)C)NC(C)=O)[C@@H](C)O)C(=O)N[C@@H](C)C(=O)N[C@@H](Cc2ccc(O)cc2)C(=O)N[C@@H](Cc2c[nH]c3ccccc23)C(=O)N[C@@H](C)C(=O)N[C@@H](CCC(N)=O)C(=O)N[C@@H](CC(C)C)C(=O)N1)C(=O)N[C@@H](C)C(=O)NCCC(C)(C)C (single isomer, unassigned) [compound 425] | 0.01 to 0.1 µM | 0.01 to 0.1 µM | 0.01 to 0.1 µM | 0.01 to 0.1 µM | – | –
CC(=O)N[C@@H](C(=O)N[C@H](C)C(=O)N[C@H](Cc1c[nH]c2ccccc12)C(=O)N[C@H](Cc1ccc(O)cc1)C(=O)N[C@]1(C)CCCC=CCCC[C@](C)(C(=O)N[C@H](CC(C)C)C(=O)N[C@H](CC(C)C)C(=O)N[C@H](CCCNC(=N)N)C(N)=O)NC(=O)[C@@H](CCC(=O)O)NC(=O)[C@@H](Cc2ccc(C(F)(F)F)cc2)NC(=O)[C@@H](CC(N)=O)NC1=O)[C@H](C)O [compound 753] (Ac-[dT][dA][dW][dY][R5][dN][dPhe(4-CF3)][dE][R5][dL][dL][dR]-NH2; staple 5-9) | – | – | > 1 µM | 0.01 to 0.1 µM | – | –
CC(=O)N[C@@H](CC(C)C)C(=O)N[C@H](C(=O)N[C@@H](Cc1ccccc1)C(=O)N[C@]1(C)CCCCCCC=CCCC[C@@](C)(C(=O)N[C@@H](CO)C(=O)N[C@@H](C)C(=O)N[C@@H](C)C(N)=O)NC(=O)[C@H](CC(C)C)NC(=O)[C@H](C)NC(=O)[C@H](C)NC(=O)[C@H](Cc2c[nH]c3ccccc23)NC(=O)[C@H](CO)NC(=O)[C@H](C)NC1=O)[C@@H](C)O (single isomer, unassigned) [compound 201] | 0.1 to 1 µM | < 0.01 µM | 0.1 to 1 µM | 0.01 to 0.1 µM | – | –
CC(=O)N[C@@H](CC(=O)O)C(=O)N[C@@H](CC(C)C)C(=O)N[C@H](C(=O)N[C@@H](Cc1ccccc1)C(=O)N[C@]1(C)CCCCCCC=CCCC[C@@](C)(C(=O)N[C@@H](CCCNC(=N)N)C(=O)N[C@@H](CCCNC(=N)N)C(=O)N[C@@H](CC(C)C)C(=O)N[C@H](C)C(N)=O)NC(=O)[C@H](CC(C)C)NC(=O)[C@H](CCC(N)=O)NC(=O)[C@H](Cc2c[nH]cn2)NC(=O)[C@H](Cc2c[nH]c3ccccc23)NC(=O)[C@H](Cc2c[nH]cn2)NC(=O)[C@H](Cc2c[nH]cn2)NC1=O)[C@@H](C)O [compound 52] (Ac-DLTF[R8]HHWHQL[S5]RRL[dA]-NH2; staple 5-12) | < 0.01 µM | < 0.01 µM | 0.01 to 0.1 µM | 0.01 to 0.1 µM | – | –

The next lines start with results.

Ki (MDMX; read-out: Ki (MDMX)) | Ki (MDM2; read-out: Ki (MDM2)) | IC50 (MDMX) | IC50 (MDM2) | Structure (SMILES) | Ki (MDMX; Ki (MDMX)) | Ki (MDM2; Ki (MDM2))
< 0.01 µM | < 0.01 µM | – | – | CC(=O)N[C@@H](CC(C)C)C(=O)N[C@H](C(=O)N[C@@H](Cc1ccccc1)C(=O)N[C@]1(C)CCCCCCC=CCCC[C@@](C)(C(=O)N[C@@H](CO)C(=O)O)NC(=O)[C@H](CC2CCC2)NC(=O)[C@H](CCC(N)=O)NC(=O)[C@H](C)NC(=O)[C@H](Cc2c[nH]c3ccccc23)NC(=O)[C@H](Cc2ccc(O)cc2)NC(=O)[C@H](CCC(=O)O)NC1=O)[C@@H](C)O [compound 594] (Ac-LTF[R8]EYWAQ[Cba][S5]S-OH; staple 4-11) | – | –
0.01 to 0.1 µM | < 0.01 µM | – | – | CC(=O)N[C@@H](CC(C)C)C(=O)N[C@H](C(=O)N[C@@H](Cc1ccccc1)C(=O)N[C@]1(C)CCCCCCC=CCCC[C@@](C)(C(=O)N[C@@H](C)C(=O)N[C@@H](C)C(=O)N[C@@H](C)C(=O)N[C@@H](C)C(=O)N[C@@H](C)C(=O)N[C@H](C)C(N)=O)NC(=O)[C@H](CC(C)C)NC(=O)[C@H](CCCNC(N)=O)NC(=O)[C@H](C)NC(=O)[C@H](Cc2c[nH]c3ccccc23)NC(=O)[C@H](Cc2ccc(O)cc2)NC(=O)[C@H](CCC(=O)O)NC1=O)[C@@H](C)O [compound 612] (Ac-LTF[R8]EYWA[Cit]L[S5]AAAAA[dA]-NH2; staple 4-11) | – | –
< 0.01 µM | < 0.01 µM | 0.01 to 0.1 µM | < 0.01 µM | CCCC[C@H](NC(=O)[C@H](C)NC(=O)[C@H](CO)NC(=O)[C@]1(C)CCCC=CCCCCCC[C@@](C)(NC(=O)[C@H](Cc2ccccc2)NC(=O)[C@@H](NC(=O)[C@H](CC(C)C)NC(C)=O)[C@@H](C)O)C(=O)N[C@@H](CCC(=O)O)C(=O)N[C@@H](Cc2ccc(C(=O)O)cc2)C(=O)N[C@@H](Cc2c[nH]c3cc(Cl)ccc23)C(=O)N[C@@H](C)C(=O)N[C@@H](CCC(N)=O)C(=O)N[C@@H](CC2CCC2)C(=O)N1)C(=O)N[C@@H](C)C(N)=O (single isomer, unassigned) [compound 334] | – | –
> 1 µM | 0.1 to 1 µM | > 1 µM | 0.1 to 1 µM | CCCCCCCCCCCCCCCC(=O)N[C@@H](CCC(=O)O)C(=O)N[C@H](C(=O)N[C@@H](Cc1ccccc1)C(=O)N[C@]1(C)CCCCCCC=CCCC[C@@](C)(C(=O)N[C@@H](CO)C(=O)N[C@@H](C)C(=O)N[C@@H](C)C(N)=O)NC(=O)[C@H](CC2CCC2)NC(=O)[C@H](CCC(N)=O)NC(=O)[C@H](C)NC(=O)[C@H](Cc2c[nH]c3ccccc23)NC(=O)[C@H](Cc2ccc(O)cc2)NC(=O)[C@H](CCC(=O)O)NC1=O)[C@@H](C)O [compound 250] (Palmitoyl-ETF[R8]EYWAQ[Cba][S5]SAA-NH2; staple 4-11) | – | –
< 0.01 µM | < 0.01 µM | 0.01 to 0.1 µM | 0.01 to 0.1 µM | CCCC[C@H](NC(=O)[C@H](C)NC(=O)[C@H](C)NC(=O)[C@]1(C)CCCC=CCCCCCC[C@@](C)(NC(=O)[C@H](Cc2ccccc2)NC(=O)[C@@H](NC(=O)[C@H](CC(C)C)NC(=O)[C@H](C)NC(C)=O)[C@@H](C)O)C(=O)N[C@@H](CCC(=O)O)C(=O)N[C@@H](Cc2ccc(O)cc2)C(=O)N[C@@H](Cc2c[nH]c3ccccc23)C(=O)N[C@@H](C)C(=O)N[C@@H](CCC(N)=O)C(=O)N[C@@H](CCC(C)C)C(=O)N1)C(=O)N[C@@H](C)C(=O)N[C@@H](C)C(N)=O [compound 382] (Ac-ALTF[R8]EYWAQ[hLeu][S5]AA[Nle]AA-NH2; staple 5-12) | – | –
